The text below walks through data of US9675614B2, “PRMT5 inhibitors and uses thereof” (Epizyme, Inc., priority 2012, dated 2017).

A value given as a limit tells only on which side of the number the result lay.

The test deals with PRMT5/MEP50 (Homo sapiens (Human), UniProt O14744). Description: PRMT5 Biochemical Assay (PRMT5/MEP50 enzyme assay on peptide substrate, 3H-SAM Flashplate). To be noted: PRMT5/MEP50 biochemical assay; read-out: Biochemical IC50.
Sequence of PRMT5/MEP50 (O14744 other isoform, or with tags, fused parts or gaps): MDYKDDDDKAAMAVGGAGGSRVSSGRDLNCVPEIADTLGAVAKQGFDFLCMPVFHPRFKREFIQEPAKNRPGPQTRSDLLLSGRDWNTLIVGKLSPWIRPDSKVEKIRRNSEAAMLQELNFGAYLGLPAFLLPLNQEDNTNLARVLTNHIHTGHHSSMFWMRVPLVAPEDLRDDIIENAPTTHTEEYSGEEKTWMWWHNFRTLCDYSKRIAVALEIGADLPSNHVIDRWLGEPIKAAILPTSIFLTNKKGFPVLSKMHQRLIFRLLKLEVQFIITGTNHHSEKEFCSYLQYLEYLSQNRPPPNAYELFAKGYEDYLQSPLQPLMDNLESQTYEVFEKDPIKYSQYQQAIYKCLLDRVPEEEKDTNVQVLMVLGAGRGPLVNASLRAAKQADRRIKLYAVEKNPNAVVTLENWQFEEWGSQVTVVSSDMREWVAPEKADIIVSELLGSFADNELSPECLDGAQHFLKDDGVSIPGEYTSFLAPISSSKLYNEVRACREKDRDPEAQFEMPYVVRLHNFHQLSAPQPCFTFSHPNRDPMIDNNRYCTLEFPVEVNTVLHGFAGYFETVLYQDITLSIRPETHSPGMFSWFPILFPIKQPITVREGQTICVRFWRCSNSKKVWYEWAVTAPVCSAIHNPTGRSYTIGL
Sequence of PRMT5/MEP50 (Q9BQA1 other isoform, or with tags, fused parts or gaps partner): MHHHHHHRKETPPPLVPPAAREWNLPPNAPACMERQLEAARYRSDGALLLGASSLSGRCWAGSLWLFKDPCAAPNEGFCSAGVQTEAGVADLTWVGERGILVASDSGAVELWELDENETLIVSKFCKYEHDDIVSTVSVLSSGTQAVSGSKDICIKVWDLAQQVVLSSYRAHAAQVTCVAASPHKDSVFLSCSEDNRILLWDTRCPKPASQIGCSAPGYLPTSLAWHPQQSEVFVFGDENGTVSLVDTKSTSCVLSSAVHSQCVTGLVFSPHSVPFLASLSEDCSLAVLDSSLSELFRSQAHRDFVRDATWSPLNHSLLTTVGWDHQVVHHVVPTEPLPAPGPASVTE
Regarding `CN1CCC(Oc2ccc(C(=O)NCC(O)CN3CCc4ccccc4C3)cc2)C1` (stereo not drawn) [Compound 177], the IC50 – broadly, the concentration that gives 50% inhibition – is below 0.1 µM.

Consider `CN(C)CCCOc1ccc(C(=O)NCC(O)CN2CCc3ccccc3C2)cc1` (stereo not drawn) [Compound 178], for which the IC50 is below 0.1 µM. Turning to `O=C(NCC(O)CN1CCc2ccccc2C1)c1ccc(N2CCS(=O)(=O)CC2)cc1` (stereo not drawn) [Compound 179], the IC50 is below 0.1 µM. Take `O=C(NC[C@H](O)CN1CCc2ccccc2C1)c1cc(NC2CCNCC2)ncn1` [Compound 180]: the IC50 was below 0.1 µM. Turning to `CN1CCC(Nc2cc(C(=O)NC[C@H](O)CN3CCc4ccccc4C3)ncn2)C1` (stereo partly drawn) [Compound 181], the IC50 is below 0.1 µM. In the case of `O=C(NC[C@H](O)CN1CCc2ccccc2C1)c1cc(NC2CCN(CC(F)(F)F)C2)ncn1` (stereo partly drawn) [Compound 182], the IC50 is below 0.1 µM. With `O=C(NC[C@H](O)CN1CCc2ccccc2C1)c1cncc(OC2CCOCC2)c1` [Compound 183] the figure was below 0.1 µM. With `O=C(NC[C@@H](O)CN1CCc2ccccc2C1)c1ccnc(NC2CCOCC2)c1` [Compound 184] the figure was below 0.1 µM; with `O=C(NC[C@@H](O)CN1CCc2ccccc2C1)c1cc(NC2CCOCC2)ncn1` [Compound 185], below 0.1 µM. Next, `CN(C)CCN(C)c1cc(C(=O)NC[C@H](O)CN2CCc3ccccc3C2)ccn1` [Compound 186]: below 0.1 µM; `O=C(NC[C@H](O)CN1CCc2ccccc2C1)c1ccnc(NCC2CC2)c1` [Compound 187]: below 0.1 µM; `O=C(NC[C@H](O)CN1CCc2ccccc2C1)c1ccnc(NCc2ccncc2)c1` [Compound 189]: below 0.1 µM.

Consider `O=C(NC[C@H](O)CN1CCc2ccccc2C1)c1ccnc(NCc2cccnc2)c1` [Compound 190], for which the IC50 was below 0.1 µM. Next, `O=C(NC[C@H](O)CN1CCc2ccccc2C1)c1ccnc(NCc2ccccn2)c1` [Compound 191]: below 0.1 µM; `O=C(NC[C@H](O)CN1CCc2ccccc2C1)c1ccnc(NC2CCOCC2)c1` [Compound 192]: below 0.1 µM; `O=C(NC[C@H](O)CN1CCc2ccccc2C1)c1cc(NC2CCOCC2)ncn1` [Compound 193]: below 0.1 µM.

`CN(C)C(=O)CCCN1CCN(Cc2cccc(C(=O)NCC(O)CN3CCc4ccccc4C3)c2)CC1` (stereo not drawn) [Compound 194]: the IC50 was below 0.1 µM. Next, `CN(CC(N)=O)Cc1cccc(C(=O)NCC(O)CN2CCc3ccccc3C2)c1` (stereo not drawn) [Compound 195]: below 0.1 µM; `CC(C)N1CCC(Oc2ccc(C(=O)NCC(O)CN3CCc4ccccc4C3)cc2)C1` (stereo not drawn) [Compound 196]: below 0.1 µM; `CC(=O)N1CCC(Oc2ccc(C(=O)NCC(O)CN3CCc4ccccc4C3)cc2)C1` (stereo not drawn) [Compound 197]: below 0.1 µM. Next, `CS(=O)(=O)N1CCC(Oc2ccc(C(=O)NCC(O)CN3CCc4ccccc4C3)cc2)C1` (stereo not drawn) [Compound 198]: below 0.1 µM. Turning to `O=C(NCC(O)CN1CCc2ccccc2C1)c1ccc(OC2CCN(CC(F)(F)F)C2)cc1` (stereo not drawn) [Compound 199], the IC50 is below 0.1 µM. With `O=C(NC[C@H](O)CN1CCc2ccccc2C1)c1ccnc(NC2CCNCC2)c1` [Compound 200] the figure was below 0.1 µM; with `O=C(NC[C@H](O)CN1CCc2ccccc2C1)c1ccnc(NC2CCNC2)c1` (stereo partly drawn) [Compound 201], below 0.1 µM; with `CN1CCC(Oc2cc(C(=O)NC[C@H](O)CN3CCc4ccccc4C3)ccn2)CC1` [Compound 202], below 0.1 µM. For `O=C(NC[C@H](O)CN1CCc2ccccc2C1)c1ccnc(OC2CCN(CC(F)(F)F)CC2)c1` [Compound 203], the IC50 was below 0.1 µM. With `CS(=O)(=O)N1CCC(Oc2cc(C(=O)NC[C@H](O)CN3CCc4ccccc4C3)ccn2)CC1` [Compound 204] the figure was below 0.1 µM.

Turning to `CC(=O)N1CCC(Oc2cc(C(=O)NC[C@H](O)CN3CCc4ccccc4C3)ccn2)CC1` [Compound 205], the IC50 was below 0.1 µM. Next, `O=C(NC[C@H](O)CN1CCc2ccccc2C1)c1cc(NC2CCNC2)ncn1` (stereo partly drawn) [Compound 209]: below 0.1 µM; `CC(=O)N1CCC(Nc2cc(C(=O)NC[C@H](O)CN3CCc4ccccc4C3)ncn2)C1` (stereo partly drawn) [Compound 210]: below 0.1 µM; `O=C(NC[C@H](O)CN1CCc2ccccc2C1)c1cncc(NC2CCOC2)c1` (stereo partly drawn) [Compound 211]: below 0.1 µM. Next, `C[C@@H]1COCCC1Nc1cccc(C(=O)NC[C@H](O)CN2CCc3ccccc3C2)c1` (stereo partly drawn) [Compound 212]: below 0.1 µM; `C[C@H]1COCCC1Nc1cccc(C(=O)NC[C@H](O)CN2CCc3ccccc3C2)c1` (stereo partly drawn) [Compound 213]: below 0.1 µM. Next, `CN(C)CCNc1cc(C(=O)NC[C@H](O)CN2CCc3ccccc3C2)ccn1` [Compound 214]: below 0.1 µM; `CC(=O)N1CCC(Nc2cccc(C(=O)NC[C@H](O)CN3CCc4ccccc4C3)c2)CC1` [Compound 215]: below 0.1 µM. In the case of `CS(=O)(=O)N1CCC(Nc2cccc(C(=O)NC[C@H](O)CN3CCc4ccccc4C3)c2)CC1` [Compound 216], the IC50 is below 0.1 µM. With `O=C(NC[C@H](O)CN1CCc2ccccc2C1)c1cccc(NC2CCN(CC(F)(F)F)CC2)c1` [Compound 217], the IC50 was below 0.1 µM. Consider `O=C(NC[C@@H](O)CN1CCc2ccccc2C1)c1ccc2ncccc2c1` [Compound 218], for which the IC50 was below 0.1 µM. With `Cc1ccc2cc(C(=O)NC[C@@H](O)CN3CCc4ccccc4C3)ccc2n1` [Compound 219, (R)—N-(3-(3,4-dihydroisoquinolin-2(1H)-yl)-2-hydroxypropyl)-2-methylquinoline-6-carboxamide] the figure was below 0.1 µM; with `O=C(NC[C@H](O)CN1CCc2ccccc2C1)c1ccc2ncccc2c1` [Compound 220], below 0.1 µM; with `Cc1ccc2cc(C(=O)NC[C@H](O)CN3CCc4ccccc4C3)ccc2n1` [Compound 221, (S)—N-(3-(3,4-dihydroisoquinolin-2(1H)-yl)-2-hydroxypropyl)-2-methylquinoline-6-carboxamide], below 0.1 µM.

With `NC(=O)CNCCOc1cccc(C(=O)NCC(O)CN2CCc3ccccc3C2)c1` (stereo not drawn) [Compound 222], the IC50 was below 0.1 µM. As to `CN1CCC(Nc2cc(C(=O)NC[C@H](O)CN3CCc4ccccc4C3)ccn2)CC1` [Compound 223], the IC50 is below 0.1 µM. Next, `O=C(NC[C@H](O)CN1CCc2ccccc2C1)c1ccnc(NC2CCN(CC(F)(F)F)CC2)c1` [Compound 224]: below 0.1 µM; `CS(=O)(=O)N1CCC(Nc2cc(C(=O)NC[C@H](O)CN3CCc4ccccc4C3)ccn2)CC1` [Compound 225]: below 0.1 µM; `O=C(NC[C@H](O)CN1CCc2ccccc2C1)c1ccnc(NC2CCN(CC(F)(F)F)C2)c1` (stereo partly drawn) [Compound 226]: below 0.1 µM.

With `CS(=O)(=O)N1CCC(Nc2cc(C(=O)NC[C@H](O)CN3CCc4ccccc4C3)ccn2)C1` (stereo partly drawn) [Compound 227], the IC50 was below 0.1 µM. Turning to `CC(=O)N1CCC(Nc2cc(C(=O)NC[C@H](O)CN3CCc4ccccc4C3)ccn2)C1` (stereo partly drawn) [Compound 228], the IC50 was below 0.1 µM.

Take `O=C(NC[C@H](O)CN1CCc2ccccc2C1)c1ccnc(OC2CCNCC2)c1` [Compound 229]: the IC50 was below 0.1 µM.

For `O=C(NC[C@H](O)CN1CCc2ccccc2C1)c1cc(NC2CCOC2)ncn1` (stereo partly drawn) [Compound 230], the IC50 was below 0.1 µM. Regarding `Cc1c(NC2CCOCC2)ncnc1C(=O)NC[C@H](O)CN1CCc2ccccc2C1` [Compound 231], the IC50 was below 0.1 µM. With `CN(C[C@H](O)CN1CCc2ccccc2C1)C(=O)c1cc(NC2CCOCC2)ncn1` [Compound 232] the figure was 0.101 to 1 µM; with `CNCCN(C)c1cc(C(=O)NC[C@H](O)CN2CCc3ccccc3C2)ccn1` [Compound 233], below 0.1 µM; with `CN(C)CCOc1cc(C(=O)NC[C@H](O)CN2CCc3ccccc3C2)ccn1` [Compound 234], below 0.1 µM.

Regarding `O=C(NC[C@H](O)CN1CCc2ccccc2C1)c1ccnc(NCC2CCNCC2)c1` [Compound 235], the IC50 is below 0.1 µM. With `O=C(NC[C@H](O)CN1CCc2ccccc2C1)c1ccnc(NCC2CCCNC2)c1` (stereo partly drawn) [Compound 236] the figure was below 0.1 µM; with `O=C(NC[C@H](O)CN1CCc2ccccc2C1)c1ccnc(NCC2CCCCN2)c1` (stereo partly drawn) [Compound 237], below 0.1 µM. As to `O=C(NC[C@H](O)CN1CCc2ccccc2C1)c1ccnc(NCC2CNCCO2)c1` (stereo partly drawn) [Compound 238], the IC50 is below 0.1 µM.

With `CN1CCC(Nc2cccc(C(=O)NC[C@H](O)CN3CCc4ccccc4C3)c2)CC1` [Compound 239], the IC50 was below 0.1 µM.

As to `O=C(NC[C@H](O)CN1CCc2ccccc2C1)c1c[nH]c2ccccc12` [Compound 240], the IC50 is 0.101 to 1 µM. Next, `O=C(NC[C@H](O)CN1CCc2ccccc2C1)c1cccc2[nH]cnc12` [Compound 241]: below 0.1 µM; `O=C(NC[C@H](O)CN1CCc2ccccc2C1)c1n[nH]c2ccccc12` [Compound 242]: below 0.1 µM; `O=C(NC[C@H](O)CN1CCc2ccccc2C1)c1ccc2c(c1)CCO2` [Compound 243]: below 0.1 µM. Take `O=C(NC[C@H](O)CN1CCc2ccccc2C1)c1ccc2c(c1)OCO2` [Compound 244]: the IC50 is below 0.1 µM. On to `O=C(NC[C@H](O)CN1CCc2ccccc2C1)c1cnc2ccccc2n1` [Compound 245], for which the IC50 is below 0.1 µM. With `Cn1cc(C(=O)NC[C@H](O)CN2CCc3ccccc3C2)c2ccccc21` [Compound 246] the figure was below 0.1 µM; with `O=C(NC[C@H](O)CN1CCc2ccccc2C1)c1ccc2c(c1)CCCC2` [Compound 247], below 0.1 µM.

On to `O=C(NC[C@H](O)CN1CCc2ccccc2C1)c1csc2ccccc12` [Compound 248], for which the IC50 was below 0.1 µM.

Consider `O=C(NC[C@H](O)CN1CCc2ccccc2C1)c1cccc2c1OCCO2` [Compound 249], for which the IC50 is below 0.1 µM. Next, `COc1ccc2oc(C(=O)NC[C@H](O)CN3CCc4ccccc4C3)cc2c1` [Compound 250]: below 0.1 µM; `COc1ccc2cc(C(=O)NC[C@H](O)CN3CCc4ccccc4C3)ccc2c1` [Compound 251]: below 0.1 µM. Next, `CC(=O)N(C)CCN1CCN(Cc2cccc(C(=O)NCC(O)CN3CCc4ccccc4C3)c2)CC1` (stereo not drawn) [Compound 252]: below 0.1 µM.
